Assays:
[1] = target: Tyrosine-protein kinase FRK (Homo sapiens) (UniProt P42685); experiment: Selectivity interaction (SelectScreen profiling (Invitrogen)) EUB0000607a FRK; settings: at 2 µM
[2] = target: Protein arginine N-methyltransferase 8 (Homo sapiens, UniProt Q9NR22); experiment: Selectivity interaction (Scintillation proximity assays) EUB0000255b PRMT8
[3] = target: T1, Serine/threonine-protein kinase ULK2 (Homo sapiens) (UniProt Q8IYT8); experiment: Selectivity interaction (KinomeScan (DiscoverX)) EUB0000045b ULK2
T1 sequence (whole entry): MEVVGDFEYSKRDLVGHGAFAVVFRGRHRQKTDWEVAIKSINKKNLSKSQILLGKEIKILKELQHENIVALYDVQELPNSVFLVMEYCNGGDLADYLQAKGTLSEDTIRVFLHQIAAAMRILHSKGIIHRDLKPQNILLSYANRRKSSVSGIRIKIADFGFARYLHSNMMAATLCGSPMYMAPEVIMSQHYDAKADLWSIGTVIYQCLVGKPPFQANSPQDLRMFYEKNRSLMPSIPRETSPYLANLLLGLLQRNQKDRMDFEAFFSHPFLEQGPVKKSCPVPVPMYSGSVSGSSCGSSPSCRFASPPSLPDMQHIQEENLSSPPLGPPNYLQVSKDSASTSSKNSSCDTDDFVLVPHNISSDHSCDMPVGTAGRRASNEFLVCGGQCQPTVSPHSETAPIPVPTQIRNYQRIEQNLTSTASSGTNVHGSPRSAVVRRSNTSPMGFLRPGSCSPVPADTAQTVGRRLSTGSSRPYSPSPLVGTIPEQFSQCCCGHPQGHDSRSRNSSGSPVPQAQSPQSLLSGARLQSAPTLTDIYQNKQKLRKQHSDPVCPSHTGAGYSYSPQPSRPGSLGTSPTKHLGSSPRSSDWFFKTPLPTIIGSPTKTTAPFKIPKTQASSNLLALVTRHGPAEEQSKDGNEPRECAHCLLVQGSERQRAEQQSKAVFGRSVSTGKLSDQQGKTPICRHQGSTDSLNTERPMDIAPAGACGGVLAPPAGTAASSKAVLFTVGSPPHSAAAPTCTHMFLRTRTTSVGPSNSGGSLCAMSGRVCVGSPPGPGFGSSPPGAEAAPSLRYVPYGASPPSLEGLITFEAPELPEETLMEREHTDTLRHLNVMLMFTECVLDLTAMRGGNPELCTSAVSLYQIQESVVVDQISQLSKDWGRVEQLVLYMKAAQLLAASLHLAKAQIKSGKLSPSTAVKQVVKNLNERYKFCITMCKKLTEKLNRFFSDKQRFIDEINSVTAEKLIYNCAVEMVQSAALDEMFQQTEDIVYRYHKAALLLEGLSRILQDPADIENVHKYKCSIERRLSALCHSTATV

[4] = target: T2, Serine/threonine-protein kinase D2 (Homo sapiens) (UniProt Q9BZL6); experiment: Selectivity interaction (ActivX KiNativ screen (ex vivo kinase selectivity in human PBMCs)) EUB0001619a PRKD2; format: cell-based; settings: PBMC, at 1 µM
T2 sequence (whole entry): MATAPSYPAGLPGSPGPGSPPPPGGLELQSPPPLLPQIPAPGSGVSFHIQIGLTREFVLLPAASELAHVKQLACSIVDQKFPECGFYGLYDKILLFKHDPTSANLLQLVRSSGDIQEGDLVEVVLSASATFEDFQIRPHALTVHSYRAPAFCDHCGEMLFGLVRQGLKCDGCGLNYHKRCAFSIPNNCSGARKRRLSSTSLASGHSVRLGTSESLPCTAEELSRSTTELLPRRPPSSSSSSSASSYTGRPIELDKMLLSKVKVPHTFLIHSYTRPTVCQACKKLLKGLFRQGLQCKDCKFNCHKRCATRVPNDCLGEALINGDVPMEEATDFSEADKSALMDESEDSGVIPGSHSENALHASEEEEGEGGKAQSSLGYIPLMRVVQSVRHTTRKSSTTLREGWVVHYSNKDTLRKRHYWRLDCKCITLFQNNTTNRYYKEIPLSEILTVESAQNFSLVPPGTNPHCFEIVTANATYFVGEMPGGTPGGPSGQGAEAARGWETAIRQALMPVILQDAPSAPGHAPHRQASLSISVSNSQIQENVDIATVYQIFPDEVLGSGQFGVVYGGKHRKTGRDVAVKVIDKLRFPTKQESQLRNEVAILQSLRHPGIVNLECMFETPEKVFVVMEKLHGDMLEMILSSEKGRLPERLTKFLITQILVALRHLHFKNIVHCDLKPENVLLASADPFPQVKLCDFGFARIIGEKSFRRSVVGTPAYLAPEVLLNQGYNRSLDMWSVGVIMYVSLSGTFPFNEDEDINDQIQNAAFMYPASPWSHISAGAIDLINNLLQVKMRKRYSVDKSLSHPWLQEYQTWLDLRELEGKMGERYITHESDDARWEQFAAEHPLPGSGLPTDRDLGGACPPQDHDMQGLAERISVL

[5] = target: T3, Aurora kinase A (Homo sapiens) (UniProt O14965); experiment: Selectivity interaction (KinomeScan (DiscoverX)) EUB0001619a STK6; settings: at 1 µM
T3 sequence (whole entry): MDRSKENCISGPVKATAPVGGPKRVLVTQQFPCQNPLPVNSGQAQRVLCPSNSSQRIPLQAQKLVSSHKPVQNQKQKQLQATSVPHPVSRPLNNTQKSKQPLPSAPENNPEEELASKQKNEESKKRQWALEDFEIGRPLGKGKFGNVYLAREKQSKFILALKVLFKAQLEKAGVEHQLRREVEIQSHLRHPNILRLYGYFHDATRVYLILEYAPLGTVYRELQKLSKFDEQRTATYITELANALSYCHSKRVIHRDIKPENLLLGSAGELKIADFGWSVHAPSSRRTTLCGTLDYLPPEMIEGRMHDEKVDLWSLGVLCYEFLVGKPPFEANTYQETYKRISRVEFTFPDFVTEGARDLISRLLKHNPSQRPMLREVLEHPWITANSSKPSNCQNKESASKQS

Chain of Protein arginine N-methyltransferase 8 (Q9NR22 whole entry): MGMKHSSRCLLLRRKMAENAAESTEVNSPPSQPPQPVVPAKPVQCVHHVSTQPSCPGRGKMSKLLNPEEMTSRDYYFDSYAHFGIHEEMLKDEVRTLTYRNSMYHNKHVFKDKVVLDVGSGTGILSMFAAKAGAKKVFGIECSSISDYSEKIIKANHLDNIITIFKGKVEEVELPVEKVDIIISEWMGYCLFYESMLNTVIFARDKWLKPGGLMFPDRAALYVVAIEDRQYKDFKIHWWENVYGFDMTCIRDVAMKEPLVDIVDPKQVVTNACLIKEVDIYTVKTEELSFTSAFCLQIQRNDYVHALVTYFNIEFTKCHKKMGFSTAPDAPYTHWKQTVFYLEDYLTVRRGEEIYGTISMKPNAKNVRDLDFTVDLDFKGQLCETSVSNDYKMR
Chain of Tyrosine-protein kinase FRK (Homo sapiens) (P42685 whole entry): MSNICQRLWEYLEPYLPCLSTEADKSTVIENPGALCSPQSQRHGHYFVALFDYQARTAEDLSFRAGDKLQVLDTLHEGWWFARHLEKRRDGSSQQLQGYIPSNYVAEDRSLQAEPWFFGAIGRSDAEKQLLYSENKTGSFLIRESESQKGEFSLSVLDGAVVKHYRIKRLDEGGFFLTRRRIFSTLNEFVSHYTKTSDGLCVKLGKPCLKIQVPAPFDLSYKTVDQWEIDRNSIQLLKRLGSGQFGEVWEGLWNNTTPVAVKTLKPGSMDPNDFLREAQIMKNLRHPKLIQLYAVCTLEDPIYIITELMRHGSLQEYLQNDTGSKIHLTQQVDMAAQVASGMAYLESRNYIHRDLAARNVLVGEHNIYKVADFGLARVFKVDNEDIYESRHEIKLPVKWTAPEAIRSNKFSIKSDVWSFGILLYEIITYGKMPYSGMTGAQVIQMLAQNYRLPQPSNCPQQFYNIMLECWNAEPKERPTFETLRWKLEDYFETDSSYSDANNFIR

SMILES: CNC(=O)Nc1ccc(-c2nc(N3CC4CCC(C3)O4)c3cnn(C4CCC5(CC4)OCCO5)c3n2)cc1
- % of inhibition [1]: 3%

SMILES: COCCN1CCC(c2cc(CN(C)C(=O)c3cccc(Oc4ccccc4)c3)ccn2)CC1
- IC50 [2]: > 10 µM

SMILES: C=CC(=O)Nc1cc(-n2c(=O)ccc3cnc4ccc(-c5ccc(NS(C)(=O)=O)cc5)cc4c32)ccc1C
- % of control ([3]; at 1 µM): 100%
- % of control ([3]; at 10 µM): 92%

SMILES: N#Cc1cccc(-c2c[nH]c3ncnc(N4CCOCC4)c23)c1
- % of inhibition [4]: 9%
- % of control [5]: 57%
